Source: patent US6528048B1, “Ophthalmic solutions” (Rohto Pharmaceutical Co., Ltd., priority 1998, dated 2003)

Tested on: rabbit corneal epithelial cells
Assay: Cytotoxicity, Neutral red assay
Type: cell-based
Conditions: cultured 2 days
Protocol: Cytotoxicity of the compound (3) was evaluated by conducting a test according to the method of Neutral red assay using rabbit corneal epithelial cells of a CornePack kit (Kurabo Industries, Ltd.). The frozen cells of the primary culture were inoculated at a density of 4000 cells/cm^2 in a 25-cm^2 flask. The cells were cultured at 37° C. under an atmosphere of 5% CO2 for 5 days (the secondary culture) and then 100 μl aliquots of them were inoculated in the wells of a 96-well multi-plate at a cell density of 2500 cells/well. The culture was continued at 37° C. under an atmosphere of 5% CO2 for 3 days (tertiary culture). […] A 100 μl aliquot of the solutions was added into each well containing the corneal epithelial cells of the tertiary culture. The cells were further cultured at 37° C. under an atmosphere of 5% CO2 for 2 days. A 100 μl aliquot of a Neutral red solution (about 150 μg/ml) was added into each well. The cells were further cultured at 37° C. under an atmosphere of 5% CO2 for 2 hours to incorporate Neutral red into lysosomes of the viable cells. Then the culture supernatants were discarded by inverting the plate. A 200 μl aliquot of a solution containing formalin and calcium chloride were added into each well and the cells were fixed for 1 minute to improve the cell adhesion to the plate. The remaining Neutral red was washed out from the wells. Subsequently, the supernatants in the wells were discarded and 100 μl aliquots of a mixture consisting of acetic acid and ethanol were added to the wells. The plate was allowed to stand for 20 minutes to extract Neutral red incorporated in the viable cells. The amount of Neutral red was determined by measuring the absorbance at a wavelength of 540 nm. The averaged absorbance value of the blank (the measured value, which was obtained by the same assay procedure but in the absence of Neutral red, for the untreated control cells cultured under the same condition) was subtracted from the measured value of the sample to give the correction absorbance value. The viable cell rate was calculated from the ratio of the sample absorbance to the absorbance for the untreated cells according to the following equation. Viable cell rate in each plate=(Averaged absorbance of each test solution/Averaged absorbance of the untreated control)×100

Compound	Viable cell rate (test solution 1.0 μg/ml) [%]	Viable cell rate (test solution 2.5 μg/ml) [%]	Viable cell rate (test solution 5.0 μg/ml) [%]	Viable cell rate (test solution 10.0 μg/ml) [%]	Viable cell rate (test solution 0.5 μg/ml) [%]
N=C(NCCCCCCNC(=N)NC(=N)Nc1ccc(Cl)cc1)NC(=N)Nc1ccc(Cl)cc1.O=C(O)[C@H](O)[C@@H](O)[C@H](O)[C@H](O)CO.O=C(O)[C@H](O)[C@@H](O)[C@H](O)[C@H](O)CO [Chlorhexidine gluconate]	103	74	49	3	–
Benzalkonium chloride	52	49	2	–	60
